Measured values reported in ChEMBL document CHEMBL1201862, “PubChem BioAssay data set” (2004).
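96-well plates; 48 h exposure; 5 concentrations. Endpoints by linear interpolation between flanking doses. Not reached: highest tested concentration assigned. Abbreviation: GI50, concentration required for 50% inhibition of growth.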 Active and inactive are the calls of the source. Cut-off read from the data, not from the text of the source: active = GI50 up to about 1.1 µM and inactive = higher.

What was measured:
Assay in all cases: DTP human tumour cell line panel, 48 h
HOP-62 = system: HOP-62
SW-620 = system: SW-620
SNB-19 = system: SNB-19
SN12C = system: SN12C
NCI-H460 = system: NCI-H460
DU-145 = system: DU-145
MOLT-4 = system: MOLT-4
A498 = system: A498
Hs-578T = system: Hs-578T
UO-31 = system: UO-31
RPMI-8226 = system: RPMI-8226
KM12 = system: KM12
SNB-75 = system: SNB-75
NCI/ADR-RES = system: NCI/ADR-RES
NCI-H226 = system: NCI-H226
HL-60 = system: HL-60
SF-539 = system: SF-539
SK-MEL-2 = system: SK-MEL-2
UACC-62 = system: UACC-62
M14 = system: M14

Row | SMILES | GI50 (HOP-62) | GI50 (SW-620) | GI50 (SNB-19) | GI50 (SN12C) | GI50 (NCI-H460) | GI50 (DU-145) | GI50 (MOLT-4) | GI50 (A498) | GI50 (Hs-578T) | GI50 (UO-31) | GI50 (RPMI-8226) | GI50 (KM12) | GI50 (SNB-75) | GI50 (NCI/ADR-RES) | GI50 (NCI-H226) | GI50 (HL-60) | GI50 (SF-539) | GI50 (SK-MEL-2) | GI50 (UACC-62) | GI50 (M14)
1 | Oc1nc2ccccc2c(O)c1Cc1ccccc1 | > 100 µM (inactive) | > 100 µM (inactive) | > 100 µM (inactive) | > 100 µM (inactive) | > 100 µM (inactive) | > 100 µM (inactive) | > 100 µM (inactive) | > 100 µM (inactive) | > 100 µM (inactive) | > 10 µM (inactive) | > 100 µM (inactive) | > 100 µM (inactive) | > 100 µM (inactive) | > 100 µM (inactive) | > 100 µM (inactive) | > 100 µM (inactive) | > 100 µM (inactive) |  |  | 
2 | CC1(CCC(=O)OC2CCCCC2)OCCO1 | > 100 µM (inactive) | > 100 µM (inactive) | > 100 µM (inactive) | > 100 µM (inactive) | > 100 µM (inactive) | > 100 µM (inactive) | > 100 µM (inactive) | > 100 µM (inactive) | > 100 µM (inactive) | > 100 µM (inactive) | > 100 µM (inactive) | > 100 µM (inactive) | > 100 µM (inactive) | > 100 µM (inactive) | > 100 µM (inactive) | > 100 µM (inactive) | > 100 µM (inactive) | > 100 µM (inactive) | > 100 µM (inactive) | > 100 µM (inactive)
3 | CC(N1CCOCC1)C(O)(c1ccccc1)c1ccccn1 (centres undefined) | > 100 µM (inactive) | > 100 µM (inactive) | > 100 µM (inactive) | > 100 µM (inactive) | > 100 µM (inactive) | > 100 µM (inactive) |  | 38.8 µM (inactive) | > 100 µM (inactive) | > 100 µM (inactive) | > 100 µM (inactive) | > 100 µM (inactive) | > 100 µM (inactive) | > 100 µM (inactive) | > 100 µM (inactive) | 44.9 µM (inactive) | > 100 µM (inactive) | > 100 µM (inactive) | 37.8 µM (inactive) | > 100 µM (inactive)
4 | O=C(OCc1ccccc1)N1c2cc([N+](=O)[O-])ccc2C(=O)N2CCC[C@H]2C1O (some centres undefined) | > 100 µM (inactive) | > 100 µM (inactive) | > 100 µM (inactive) | > 100 µM (inactive) | > 100 µM (inactive) | > 100 µM (inactive) | > 100 µM (inactive) | > 100 µM (inactive) | > 100 µM (inactive) | > 100 µM (inactive) | > 100 µM (inactive) | > 100 µM (inactive) | > 100 µM (inactive) | > 100 µM (inactive) | > 100 µM (inactive) | > 100 µM (inactive) | > 100 µM (inactive) | > 100 µM (inactive) | > 100 µM (inactive) | > 100 µM (inactive)
5 | Cc1nc2c(sc3nc4c(cc32)CCC4)c(=O)o1 | > 100 µM (inactive) | > 59.7 µM (inactive) | > 53.2 µM (inactive) | 98.2 µM (inactive) | > 59.8 µM (inactive) | > 100 µM (inactive) | 41.9 µM (inactive) | > 100 µM (inactive) | 45.9 µM (inactive) | > 56.1 µM (inactive) | 48.9 µM (inactive) | > 87.1 µM (inactive) | > 68.4 µM (inactive) | > 56.1 µM (inactive) | > 96.2 µM (inactive) | 49.9 µM (inactive) | 40.5 µM (inactive) | > 100 µM (inactive) | > 100 µM (inactive) | 64.3 µM (inactive)
6 | CC(C)Oc1ccc(CNC2=NCCO2)c2ccccc12 | 15.6 µM (inactive) | 15.3 µM (inactive) | 7.74 µM (inactive) | 17.3 µM (inactive) | 12.4 µM (inactive) | 18.2 µM (inactive) | 4.85 µM (inactive) | 10.2 µM (inactive) | 10.3 µM (inactive) | 5.24 µM (inactive) | 9.77 µM (inactive) | 18.1 µM (inactive) | 18.2 µM (inactive) | 12.3 µM (inactive) | 15.7 µM (inactive) | 8.63 µM (inactive) | 9.66 µM (inactive) |  | 15.3 µM (inactive) | 11.4 µM (inactive)
7 | CC(CN(C)C)C(C#N)(c1ccccc1)c1ccccc1 (centres undefined) | > 100 µM (inactive) | > 100 µM (inactive) | > 100 µM (inactive) | > 100 µM (inactive) | > 100 µM (inactive) | > 100 µM (inactive) | > 100 µM (inactive) | > 100 µM (inactive) | > 100 µM (inactive) | > 100 µM (inactive) | 78.2 µM (inactive) | > 100 µM (inactive) | > 100 µM (inactive) | > 100 µM (inactive) | > 100 µM (inactive) | > 100 µM (inactive) | > 100 µM (inactive) | > 100 µM (inactive) | > 100 µM (inactive) | > 100 µM (inactive)
8 | CN1CSC(=S)N(c2c3ccccc3nc3ccc(Br)cc23)C1 | 7.87 µM (inactive) | 3.89 µM (inactive) | 12.5 µM (inactive) | 5.31 µM (inactive) | 3.83 µM (inactive) | 8.09 µM (inactive) | 0.783 µM (active) | 13.6 µM (inactive) | 17.8 µM (inactive) | 9.06 µM (inactive) | 7.71 µM (inactive) | 7.11 µM (inactive) | 8.99 µM (inactive) | 7.67 µM (inactive) | 10 µM (inactive) | 11.1 µM (inactive) | 11.6 µM (inactive) | 13 µM (inactive) | 14 µM (inactive) | 13.1 µM (inactive)
9 | Fc1ccc(F)c(/C=N/C23CC4CC(CC(C4)C2)C3)c1 | > 10 µM (inactive) | > 10 µM (inactive) | > 10 µM (inactive) | > 10 µM (inactive) | > 10 µM (inactive) | > 10 µM (inactive) | > 10 µM (inactive) | > 10 µM (inactive) | > 10 µM (inactive) | > 10 µM (inactive) | > 10 µM (inactive) | > 10 µM (inactive) | > 10 µM (inactive) | > 10 µM (inactive) | > 10 µM (inactive) | 2.62 µM (inactive) | > 10 µM (inactive) | > 10 µM (inactive) |  | > 10 µM (inactive)
10 | O=C(CCC(NC(=O)OCc1ccccc1)C(=O)OCc1ccccc1)Nc1ccc(OCc2ccccc2)cc1 (centres undefined) | > 78.7 µM (inactive) | 25.7 µM (inactive) | 21.7 µM (inactive) | > 31.6 µM (inactive) | 15.6 µM (inactive) | > 31.6 µM (inactive) | 24.6 µM (inactive) | > 10 µM (inactive) | 18.3 µM (inactive) | > 10 µM (inactive) | > 10 µM (inactive) | > 31.6 µM (inactive) | > 31.6 µM (inactive) | 17.5 µM (inactive) | > 31.6 µM (inactive) | > 31.6 µM (inactive) | > 31.6 µM (inactive) | > 10 µM (inactive) | > 31.6 µM (inactive) | > 75.7 µM (inactive)
